PubChem BioAssay (NCI)
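Each compound was tested at five concentrations against cells in 96-well plates for 48 hours. Here, GI50 denotes the concentration required for 50% inhibition of growth. The concentration for full growth arrest is given as TGI.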

Experiments:
Assay in all cases: inhibition of tumour cell growth, NCI panel, 48 h
[1] = tested on: HCT-116 colon
[2] = tested on: SNB-19 CNS
[3] = tested on: MDA-MB-231 breast
[4] = tested on: BT-549 breast
[5] = tested on: MCF7 breast
[6] = tested on: HL-60(TB) leukemia
[7] = tested on: PC-3 prostate
[8] = tested on: OVCAR-3 ovarian
[9] = tested on: SK-MEL-28 melanoma
[10] = tested on: CAKI-1 renal
[11] = tested on: UACC-257 melanoma
[12] = tested on: RXF 393 renal
[13] = tested on: NCI-H226 lung
[14] = tested on: SK-MEL-2 melanoma
[15] = tested on: A549 NSCLC
[16] = tested on: SF-295 CNS
[17] = tested on: 786-0 renal
[18] = tested on: SW-620 colon
[19] = tested on: A498 renal
[20] = tested on: SK-OV-3 ovarian
[21] = tested on: COLO 205 colon
[22] = tested on: OVCAR-8 ovarian
[23] = tested on: HCT-15 colon
[24] = tested on: SK-MEL-5 melanoma
[25] = tested on: UO-31 renal
[26] = tested on: MOLT-4 leukemia
[27] = tested on: K-562 leukemia
[28] = tested on: ACHN renal
[29] = tested on: MALME-3M melanoma
[30] = tested on: HOP-92 NSCLC
[31] = tested on: U251 CNS
[32] = tested on: KM12 colon
[33] = tested on: NCI/ADR-RES ovarian
[34] = tested on: SF-539 CNS
[35] = tested on: HCC-2998 colon
[36] = tested on: NCI-H23 lung
[37] = tested on: HT29 colon
[38] = tested on: RPMI-8226 leukemia
[39] = tested on: UACC-62 melanoma
[40] = tested on: EKVX NSCLC
[41] = tested on: OVCAR-5 ovarian
[42] = tested on: M14 melanoma
[43] = tested on: NCI-H460 lung
[44] = tested on: HOP-62 NSCLC
[45] = tested on: SN12C renal
[46] = tested on: IGROV1 ovarian
[47] = tested on: HS 578T breast
[48] = tested on: SF-268 CNS
[49] = tested on: MDA-MB-435
[50] = tested on: SNB-75 CNS
[51] = tested on: OVCAR-4 ovarian
[52] = tested on: LOX IMVI melanoma
[53] = tested on: NCI-H522 lung
[54] = tested on: DU-145 prostate
[55] = tested on: CCRF-CEM leukemia
[56] = tested on: TK-10 renal

N=C(N)c1ccc(-c2ccc(-c3ccccc3)o2)o1
GI50 [1]: 2.06 µM | TGI [1]: 5.29 µM | GI50 [2]: 3.01 µM | TGI [2]: 10.1 µM | GI50 [3]: 2.04 µM | TGI [3]: 4.9 µM | GI50 [4]: 4.12 µM | TGI [4]: 16 µM | GI50 [5]: 1.68 µM | TGI [5]: 5.61 µM | GI50 [6]: 2.18 µM | TGI [6]: 5.2 µM | GI50 [7]: 2.64 µM | TGI [7]: 10.1 µM | GI50 [8]: 3.13 µM | TGI [8]: 11.9 µM | GI50 [9]: 1.9 µM | TGI [9]: 4.41 µM | GI50 [10]: 3.4 µM | TGI [10]: 14.2 µM | GI50 [11]: 2.52 µM | TGI [11]: 6.35 µM | GI50 [12]: 2.33 µM | TGI [12]: 6.55 µM | GI50 [13]: 5.7 µM | TGI [13]: 24.2 µM | GI50 [14]: 2.25 µM | TGI [14]: 4.2 µM | GI50 [15]: 3.55 µM | TGI [15]: 11.7 µM | GI50 [16]: 1.81 µM | TGI [16]: 4.03 µM | GI50 [17]: 1.74 µM | TGI [17]: 3.54 µM | GI50 [18]: 1.79 µM | TGI [18]: 4.2 µM | GI50 [19]: 3.03 µM | TGI [19]: 11.7 µM | GI50 [20]: 4.3 µM | TGI [20]: 16 µM | GI50 [21]: 1.78 µM | TGI [21]: 3.49 µM | GI50 [22]: 4 µM | TGI [22]: 16.9 µM | GI50 [23]: 1.16 µM | TGI [23]: 4.22 µM | GI50 [24]: 1.75 µM | TGI [24]: 3.19 µM | GI50 [25]: 1.54 µM | TGI [25]: 3.13 µM | GI50 [26]: 3.31 µM | TGI [26]: 10.2 µM | GI50 [27]: 0.657 µM | TGI [27]: 3.18 µM | GI50 [28]: 2.56 µM | TGI [28]: 6.73 µM | GI50 [29]: 1.75 µM | TGI [29]: 3.53 µM | GI50 [30]: 1.85 µM | TGI [30]: 4.73 µM | GI50 [31]: 2.22 µM | TGI [31]: 5.12 µM | GI50 [32]: 2.61 µM | TGI [32]: 9.93 µM | GI50 [33]: 2.82 µM | TGI [33]: 11 µM | GI50 [34]: 1.95 µM | TGI [34]: 4.43 µM | GI50 [35]: 1.61 µM | TGI [35]: 3.25 µM | GI50 [36]: 5.78 µM | TGI [36]: 19.8 µM | GI50 [37]: 2.11 µM | TGI [37]: 4.7 µM | GI50 [38]: 2.89 µM | TGI [38]: 8.21 µM | GI50 [39]: 1.93 µM | TGI [39]: 3.82 µM | GI50 [40]: 2.34 µM | TGI [40]: 9.37 µM | GI50 [41]: 2.7 µM | TGI [41]: 10.9 µM | GI50 [42]: 1.62 µM | TGI [42]: 3.4 µM | GI50 [43]: 2.45 µM | TGI [43]: 5.82 µM | GI50 [44]: 3.59 µM | TGI [44]: 15.3 µM | GI50 [45]: 3.12 µM | TGI [45]: 10.3 µM | GI50 [46]: 2.89 µM | TGI [46]: 11.8 µM | GI50 [47]: 3.81 µM | TGI [47]: 21.2 µM | GI50 [48]: 2.98 µM | TGI [48]: 12.3 µM | GI50 [49]: 0.999 µM | TGI [49]: 2.39 µM | GI50 [50]: 1.6 µM | TGI [50]: 4.12 µM | GI50 [51]: 3.48 µM | TGI [51]: 14.5 µM | GI50 [52]: 1.7 µM | TGI [52]: 3.34 µM | GI50 [53]: 1.94 µM | TGI [53]: 3.89 µM | GI50 [54]: 3.3 µM | TGI [54]: 11.6 µM | GI50 [55]: 3.58 µM | TGI [55]: 12.4 µM | GI50 [56]: 3.32 µM | TGI [56]: 11.4 µM
